# From patent publication US5817669A, “Compounds, processes for the preparation thereof and anti-tumor agents” (Dainippon Pharmaceutical Co., Ltd., priority 1994, dated 1998)
# Like-named read-outs stand apart in the source and are kept apart here.
# Assays:
# [1] = tested on: WiDr human colorectal cancer; experiment: In vitro anti-tumor activity against WiDr human colorectal cancer (MTT); assay type: cell-based; conditions: 72 h, MTT, read-out: IC50
# Experimental: (§1) A culture medium containing 500 to 2,000 human cancer cells was put in an amount of 0.1 ml in each well of 96-well plate, and the cells were cultured for 20 hours under a condition of 37° C. and 5% carbon dioxide gas in air. After the culturing, a solution of test compounds of predetermined concentration was added, and then, the cells were cultured for further 72 hours. After the culturing, an MTT (5 mg/ml) solution was added in an amount of 0.01 ml in the respective wells, and the cells were cultured for further 4 hours. The supernatants of the culture medium were removed by suction, and then, 0.1 ml of dimethyl sulfoxide was put in respective well to dissolve the formed formazan, and, moreover, 0.1 ml of dimethyl sulfoxide was added.
# HMV2 human melanoma = experiment: In vitro anti-tumor activity against HMV-2 human melanoma (MTT); assay type: cell-based; conditions: HMV-2, 72 h, MTT, read-out: IC50
# Experimental: as §1
# [2] = tested on: MKN45 human stomach cancer; experiment: In vitro anti-tumor activity against MKN45 human stomach cancer (MTT); assay type: cell-based; conditions: MKN-45, MKN45, 72 h, MTT, read-out: IC50
# Experimental: as §1
# A427 human lung cancer = experiment: In vitro anti-tumor activity against A-427 human lung cancer (MTT); assay type: cell-based; conditions: A-427, 72 h, MTT, read-out: IC50
# Experimental: as §1
# [3] = tested on: murine P388 lymphocytic leukemia cells; experiment: In vitro anti-tumor activity against murine P388 lymphocytic leukemia cells (MTT, 72 h); assay type: cell-based; conditions: Mus musculus; murine P388 cells, 72 h, MTT; read-out: IC50 (50% proliferation inhibitory concentration)
# Experimental: Test compounds were tested for anti-tumor activity according to MTT [3-(4,5-dimethylthiazol-2-yl)-2,5-diphenyltetrazolium bromide] method, using murine P388 lymphocytic leukemia cells. […] The culture medium was centrifuged (4° C., 2,000 rpm for 20 minutes), and thus, the supernatants were removed by suction. Then, 0.1 ml of dimethyl sulfoxide was put in each well to dissolve the formed formazan, and, subsequently, another 0.1 ml of dimethyl sulfoxide was added. The absorbance (OD) of each of the obtained solutions was measured by use of Multiskan Bichromatic (main wavelength 570 nm, sub-wavelength 690 nm). […] IC50 :μg/ml) were calculated by the least squares method.
# [4] = tested on: KB human nasopharynx cancer; experiment: In vitro anti-tumor activity against KB human nasopharynx cancer (MTT); assay type: cell-based; conditions: KB, 72 h, MTT, read-out: IC50
# Experimental: as §1
# [5] = tested on: colon 26 murine tumor cells; experiment: Tumor growth inhibition effect on colon 26 murine tumor cells implanted mice; assay type: in vivo, SLC: CDF1 mice; conditions: Mus musculus, Colon 26, 504 h, ip, days 1-9, day 21 or 22, read-out: Tumor growth inhibition rate IR (%)
# Experimental: A 2% brei of colon 26 murine tumor cells was intracutaneously implanted each 0.1 ml in the abdominal part of SLC: CDF1 female mice (7 to 9 weeks old, 7 animals per one group). […] The obtained solutions were intraperitoneally (ip) administered each 0.2 ml once a day, from the day (1st day) following the implantation to the 9th day. On the 21st or 22nd day after the implantation, tumor weight was estimated from tumor diameters, and thus, the tumor growth inhibition rate (IR %) of the drug administered group in comparison with the control group was calculated according to the following equation. IR (%)=[1-{(MTW in the treated group)/(MTW in the control group)}]×10 0 MTW: mean tumor weight
# [6] = tested on: murine P388 lymphocytic leukemia cells; experiment: Increases in life span of mice implanted with murine P388 lymphocytic leukemia cells; assay type: in vivo, SLC: BDF1 mice; conditions: Mus musculus, P388, ip, 720 h, ip
# Experimental: 1×10^6 murine P388 lymphocytic leukemia cells were intraperitoneally implanted in each of SLC: BDF1 mice (8 to 10 weeks old, female, 7 animals per one group). A test compound (drug) was either dissolved in 0.1 N--NaOH or suspended in 0.4% carboxymethylcellulose solution, and the resultant solution or suspension was diluted with distilled water or 0.4% carboxymethylcellulose solution so as to give predetermined concentrations for administration. The obtained solution was intraperitoneally (ip) administered twice, namely on the day following the implantation (1st day) and the 5th day, each 0.2 ml. The life and death of the mice were observed over a period of 30 days, and the median survival time (hereinafter referred to as MST) was determined for each group, and, thus, the increase in life span (ILS; %) was calculated according to the following equation:
# ILS (%)=[{(MST of the test group)/(MST of the control group)}-1]×100
# Drug effect was judged in the following manner, according to the criterion of U.S. National Cancer Institute (NCI):
# ILS=75% or higher: ++ (remarkably effective);
# 20 to 74%: + (effective);
# 19% or lower: - (ineffective)
# [7] = tested on: AZ521 human stomach cancer; experiment: In vitro anti-tumor activity against AZ-521 human stomach cancer (MTT); assay type: cell-based; conditions: AZ-521, 72 h, MTT, read-out: IC50
# Experimental: as §1
# Acute toxicity = conditions: mouse, in vivo, mice, 14th day
# Experimental: Solutions of test compounds in predetermined concentrations were administered (0.1 ml/10 g body weight) to female BALB/c CrSlc mice (5 to 10 animals per one group, 10 weeks old) respectively, and, thus, LD50 values were calculated from the mortalities of the mice on the 14th day after the administration.
# C33A human cervix cancer = experiment: In vitro anti-tumor activity against C-33A human cervix cancer (MTT); assay type: cell-based; conditions: C-33A, 72 h, MTT, read-out: IC50
# Experimental: as §1
# [8] = NCI criterion, read-out: Evaluation
# [9] = days 1 and 5, in solution, read-out: ILS (%) (in solution)
# [10] = days 1 and 5, in suspension, read-out: ILS (%) (in suspension)
compound,measurement,setting,value
CO[C@@H]1CN(c2ccc3c(=O)c(C(=O)O)cn(-c4nccs4)c3n2)C[C@H]1N (relative stereo) [Compound 2],IC50,[1],1.88 µg/mL
same,IC50,HMV2 human melanoma,0.382 µg/mL
same,IC50,[2],0.579 µg/mL
same,IC50,A427 human lung cancer,0.169 µg/mL
same,IC50,[3],0.0178 µg/mL
same,IC50,[4],0.309 µg/mL
same,inhibition in vivo at 12.5 mg/kg,[5]; 12.5 mg/kg once a day,79%
same,ILS at 1.56 mg/kg,[6]; [8],20 to 74%
same,ILS at 3.13 mg/kg,[6]; [8],> 75%
same,ILS at 6.25 mg/kg,[6]; [8],> 75%
same,ILS at 12.5 mg/kg,[6]; [8],> 75%
same,ILS at 25 mg/kg,[6]; [8],> 75%
same,ILS at 50 mg/kg,[6]; [8],> 75%
same,ILS at 1.56 mg/kg,[6]; [9],50%
same,ILS at 3.13 mg/kg,[6]; [9],88%
same,ILS at 3.13 mg/kg,[6]; [10],63%
same,ILS at 6.25 mg/kg,[6]; [9],100%
same,ILS at 12.5 mg/kg,[6]; [9],125%
same,ILS at 12.5 mg/kg,[6]; [10],138%
same,ILS at 25 mg/kg,[6]; [9],213%
same,ILS at 50 mg/kg,[6]; [9],> 275%
same,ILS at 50 mg/kg,[6]; [10],238%
same,IC50,[7],0.331 µg/mL
same,LD50 at 336 h,Acute toxicity; Intraperitoneal administration (ip),135 mg/kg
same,IC50,C33A human cervix cancer,0.314 µg/mL
CN[C@@H]1CN(c2ccc3c(=O)c(C(=O)O)cn(-c4nccs4)c3n2)C[C@H]1C (relative stereo) [Compound 5],IC50,[1],0.218 µg/mL
same,IC50,HMV2 human melanoma,0.0944 µg/mL
same,IC50,[2],0.0978 µg/mL
same,IC50,A427 human lung cancer,0.0927 µg/mL
same,IC50,[3],0.0117 µg/mL
same,IC50,[4],0.0805 µg/mL
same,inhibition in vivo at 1.56 mg/kg,[5]; 1.56 mg/kg once a day,78%
same,ILS at 1.56 mg/kg,[6]; [8],20 to 74%
same,ILS at 3.13 mg/kg,[6]; [8],> 75%
same,ILS at 6.25 mg/kg,[6]; [8],> 75%
same,ILS at 12.5 mg/kg,[6]; [8],> 75%
same,ILS at 1.56 mg/kg,[6]; [9],50%
same,ILS at 3.13 mg/kg,[6]; [9],113%
same,ILS at 3.13 mg/kg,[6]; [10],88%
same,ILS at 6.25 mg/kg,[6]; [9],150%
same,ILS at 12.5 mg/kg,[6]; [9],188%
same,ILS at 12.5 mg/kg,[6]; [10],188%
same,IC50,[7],0.0433 µg/mL
same,LD50 at 336 h,Acute toxicity; Intravenous administration (iv),66.7 mg/kg
same,IC50,C33A human cervix cancer,0.106 µg/mL
